Test [1] has as its target T1, BRM (Homo sapiens, UniProt P51531).
T1 construct: made in house; host or cells: High Five insect cells
Nature of the test: ATPase catalytic activity of BRM, ADP-Glo in vitro biochemical assay. As to conditions: ATPase catalytic activity, 30 nM BRM, 400 μM ATP, read-out: BRM IP50. A general note: ADP-Glo first removes unused ATP, then detects ADP through luciferase.

The target in test [2] is T2, BRG-1 (Homo sapiens, UniProt P51532).
T2 construct: made in house; host or cells: High Five insect cells
Nature of the test: ATPase catalytic activity of BRG-1, ADP-Glo in vitro biochemical assay. Particulars: ATPase catalytic activity, 30 nM BRG-1, 400 μM ATP, read-out: BRG1 IP50.

T2 sequence (P51532 whole entry): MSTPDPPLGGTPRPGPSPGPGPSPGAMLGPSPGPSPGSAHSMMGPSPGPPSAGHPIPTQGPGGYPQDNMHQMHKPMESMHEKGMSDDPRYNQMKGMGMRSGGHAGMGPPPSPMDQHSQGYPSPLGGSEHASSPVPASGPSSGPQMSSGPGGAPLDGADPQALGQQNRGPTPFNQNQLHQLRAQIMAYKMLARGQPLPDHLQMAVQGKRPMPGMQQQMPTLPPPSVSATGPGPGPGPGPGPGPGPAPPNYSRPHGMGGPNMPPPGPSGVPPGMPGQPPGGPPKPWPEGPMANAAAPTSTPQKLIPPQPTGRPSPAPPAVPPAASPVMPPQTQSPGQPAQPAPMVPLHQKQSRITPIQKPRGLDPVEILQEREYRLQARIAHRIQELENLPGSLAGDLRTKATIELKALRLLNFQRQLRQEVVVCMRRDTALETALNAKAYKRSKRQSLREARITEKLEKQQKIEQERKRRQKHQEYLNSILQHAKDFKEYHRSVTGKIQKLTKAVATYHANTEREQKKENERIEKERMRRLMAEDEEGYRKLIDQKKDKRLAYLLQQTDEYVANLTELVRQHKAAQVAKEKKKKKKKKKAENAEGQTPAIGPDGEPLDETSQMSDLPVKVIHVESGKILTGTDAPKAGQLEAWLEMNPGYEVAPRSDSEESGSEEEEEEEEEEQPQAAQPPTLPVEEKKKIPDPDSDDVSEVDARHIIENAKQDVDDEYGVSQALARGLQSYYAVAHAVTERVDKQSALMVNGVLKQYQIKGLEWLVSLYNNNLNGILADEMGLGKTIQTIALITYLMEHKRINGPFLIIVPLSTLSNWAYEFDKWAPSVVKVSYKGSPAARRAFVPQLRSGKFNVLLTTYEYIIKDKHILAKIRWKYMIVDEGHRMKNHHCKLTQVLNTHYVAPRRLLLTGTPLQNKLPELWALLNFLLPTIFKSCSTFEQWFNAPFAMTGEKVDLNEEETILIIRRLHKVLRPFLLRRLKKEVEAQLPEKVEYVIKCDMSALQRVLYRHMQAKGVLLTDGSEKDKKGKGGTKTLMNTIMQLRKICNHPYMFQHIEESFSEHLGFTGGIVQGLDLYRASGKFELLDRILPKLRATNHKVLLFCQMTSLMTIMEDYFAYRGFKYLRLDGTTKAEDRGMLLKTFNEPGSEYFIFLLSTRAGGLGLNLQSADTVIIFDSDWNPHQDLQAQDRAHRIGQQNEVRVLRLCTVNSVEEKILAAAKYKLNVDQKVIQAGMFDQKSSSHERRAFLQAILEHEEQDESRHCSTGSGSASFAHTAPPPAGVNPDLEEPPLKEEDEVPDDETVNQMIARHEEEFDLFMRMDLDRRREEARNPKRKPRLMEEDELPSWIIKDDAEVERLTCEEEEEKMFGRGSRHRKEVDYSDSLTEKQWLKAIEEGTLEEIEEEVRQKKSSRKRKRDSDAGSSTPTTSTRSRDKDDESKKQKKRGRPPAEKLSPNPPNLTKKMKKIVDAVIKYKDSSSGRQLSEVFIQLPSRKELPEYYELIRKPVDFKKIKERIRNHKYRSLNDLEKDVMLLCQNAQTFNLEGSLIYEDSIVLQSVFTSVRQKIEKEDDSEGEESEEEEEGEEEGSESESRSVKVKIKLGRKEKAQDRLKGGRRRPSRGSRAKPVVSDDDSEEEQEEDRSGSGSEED
T1 sequence (P51531 whole entry): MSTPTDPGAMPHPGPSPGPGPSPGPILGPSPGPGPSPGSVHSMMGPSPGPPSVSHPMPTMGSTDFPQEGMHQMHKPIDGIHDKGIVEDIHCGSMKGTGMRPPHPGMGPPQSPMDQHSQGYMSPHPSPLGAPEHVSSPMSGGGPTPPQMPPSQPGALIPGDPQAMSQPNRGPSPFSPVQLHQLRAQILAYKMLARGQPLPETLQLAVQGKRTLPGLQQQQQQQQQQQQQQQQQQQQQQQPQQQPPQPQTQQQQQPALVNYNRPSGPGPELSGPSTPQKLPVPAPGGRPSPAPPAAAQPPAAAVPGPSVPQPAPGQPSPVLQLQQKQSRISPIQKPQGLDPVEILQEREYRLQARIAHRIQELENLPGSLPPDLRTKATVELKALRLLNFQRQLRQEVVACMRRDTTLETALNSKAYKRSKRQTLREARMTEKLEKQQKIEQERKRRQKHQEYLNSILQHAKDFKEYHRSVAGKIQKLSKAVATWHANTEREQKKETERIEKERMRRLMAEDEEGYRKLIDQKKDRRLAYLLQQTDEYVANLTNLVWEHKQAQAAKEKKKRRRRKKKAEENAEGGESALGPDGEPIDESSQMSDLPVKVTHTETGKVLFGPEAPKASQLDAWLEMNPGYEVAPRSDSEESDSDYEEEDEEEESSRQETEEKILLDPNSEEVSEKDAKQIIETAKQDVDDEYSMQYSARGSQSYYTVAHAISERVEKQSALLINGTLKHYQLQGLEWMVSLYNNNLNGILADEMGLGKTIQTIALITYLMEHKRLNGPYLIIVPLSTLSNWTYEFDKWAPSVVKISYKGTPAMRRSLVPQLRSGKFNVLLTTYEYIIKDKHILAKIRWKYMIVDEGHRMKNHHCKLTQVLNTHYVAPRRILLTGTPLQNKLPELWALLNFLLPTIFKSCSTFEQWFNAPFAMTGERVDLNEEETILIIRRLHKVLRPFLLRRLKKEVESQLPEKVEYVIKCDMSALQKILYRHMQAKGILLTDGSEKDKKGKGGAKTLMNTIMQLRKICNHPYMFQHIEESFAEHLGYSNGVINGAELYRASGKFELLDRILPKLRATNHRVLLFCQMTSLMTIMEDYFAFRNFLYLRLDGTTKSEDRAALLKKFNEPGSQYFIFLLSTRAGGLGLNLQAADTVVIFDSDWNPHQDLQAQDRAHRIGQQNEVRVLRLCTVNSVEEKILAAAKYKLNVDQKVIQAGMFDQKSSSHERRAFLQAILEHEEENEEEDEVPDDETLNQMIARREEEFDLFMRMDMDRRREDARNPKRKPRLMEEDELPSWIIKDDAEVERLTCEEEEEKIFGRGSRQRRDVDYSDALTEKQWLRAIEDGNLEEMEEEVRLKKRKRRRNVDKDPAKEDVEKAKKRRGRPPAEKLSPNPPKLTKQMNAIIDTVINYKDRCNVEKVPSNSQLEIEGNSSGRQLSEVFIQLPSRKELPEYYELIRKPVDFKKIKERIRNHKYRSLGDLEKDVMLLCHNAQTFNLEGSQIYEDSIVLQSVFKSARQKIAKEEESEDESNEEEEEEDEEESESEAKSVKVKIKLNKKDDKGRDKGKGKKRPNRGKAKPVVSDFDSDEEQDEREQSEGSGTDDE

As to `CC(C)(C)n1ccc(C(=O)NCC(=O)Nc2nc(-c3cccc(N4CCC(C#N)C4)n3)cs2)c1` (stereo not shown) [Compound 672], the IC50 in test [1] and in test [2] was more than 10 nM in each case.
In the case of `C[C@@H]1CCN(c2cccc(-c3csc(NC(=O)CNC(=O)c4ccn(C(C)(C)C)c4)n3)n2)C1` [Compound 673], the IC50 in test [1] and in test [2] was more than 10 nM each time.
As to `CC(C)(C)n1ccc(C(=O)NCC(=O)Nc2nc(-c3cccc(N4C[C@H]5COC[C@H]5C4)n3)cs2)c1` [Compound 674], the IC50 in test [1] and in test [2] was more than 10 nM each time.
As to `CC(C)(C)n1ccc(C(=O)NCC(=O)Nc2nc(-c3cccc(N4CCC(F)C4)n3)cs2)c1` (stereo not shown) [Compound 675], the IC50 in test [1] and in test [2] was more than 10 nM each time.
In the case of `CC(C)(C)n1ccc(C(=O)NCC(=O)Nc2nc(-c3cccc(N4CCC5OCCC5C4)n3)cs2)c1` (stereo not shown) [Compound 676], the IC50 in test [1] and in test [2] was more than 10 nM throughout.
As to `CC(C)(C)n1ccc(C(=O)NCC(=O)Nc2nc(-c3cccc(N4C[C@@H](F)[C@H](F)C4)n3)cs2)c1` [Compound 677], the IC50 in test [1] and in test [2] was more than 100 nM in each case.
`Cc1cc(N2CCN(c3cccc(-c4csc(NC(=O)CNC(=O)c5ccn(C(C)(C)C)c5)n4)n3)CC2)ccn1` [Compound 678]: the IC50 in test [1] and in test [2] was more than 100 nM each time.
In the case of `CC(C)(C)n1ccc(C(=O)NCC(=O)Nc2nc(-c3cccc(N4CCC(F)(F)C4)n3)cs2)c1` [Compound 679], the IC50 in test [1] and in test [2] was more than 10 nM throughout.
Take `CN(C)C1CCCN(c2cccc(-c3csc(NC(=O)CNC(=O)c4ccn(C(C)(C)C)c4)n3)n2)C1` (stereo not shown) [Compound 680]: the IC50 in test [1] is more than 10 nM; in test [2] it was more than 100 nM.
For `CC(C)(C)n1ccc(C(=O)NCC(=O)Nc2nc(-c3cccc(N4CCc5cnccc5C4)n3)cs2)c1` [Compound 681] the same measures were less than 10 nM and more than 10 nM.
The corresponding values for `CC(C)(C)n1ccc(C(=O)NCC(=O)Nc2nc(-c3cccc(N4CCC(n5cncn5)CC4)n3)cs2)c1` [Compound 682] are more than 100 nM and more than 100 nM.
For `CS(=O)(=O)n1ccc(C(=O)NCC(=O)Nc2nc(-c3cccc(N4CC[C@@H](C(F)F)C4)n3)cs2)c1` [Compound 683] the same measures were more than 10 nM and more than 10 nM.
On to `COCC1CN(c2cccc(-c3csc(NC(=O)CNC(=O)c4ccn(C(C)(C)C)c4)n3)n2)CCO1` (stereo not shown) [Compound 684], for which the IC50 in test [1] and in test [2] was more than 10 nM in each case.
For `C[C@@H]1CN(c2cncc(-c3csc(NC(=O)CNC(=O)c4ccn(C(C)(C)C)c4)n3)c2)C[C@H](C)O1` [Compound 685], the IC50 in test [1] is more than 10 nM; in test [2] it was more than 100 nM.
Take `C[C@@H]1CN(c2cncc(-c3csc(NC(=O)CNC(=O)c4ccn(S(C)(=O)=O)c4)n3)c2)C[C@H](C)O1` [Compound 686]: the IC50 in test [1] and in test [2] was more than 10 nM in each case.
For the molecule `CC(C)(C)n1ccc(C(=O)NCC(=O)Nc2nc(-c3cccc(N4CC(F)C4)n3)cs2)c1` [Compound 687], the IC50 in test [1] was more than 10 nM; in test [2] it was more than 100 nM.
Regarding `COC[C@H](NC(=O)c1ccn(S(C)(=O)=O)c1)C(=O)Nc1nc(-c2ccc3c(c2)CCO3)cs1` [Compound 688], the IC50 in test [1] and in test [2] was more than 10 nM each time.
As for `CC(C)(C)n1ccc(C(=O)NCC(=O)Nc2nc(-c3cccc(N4C[C@@H]5[C@@H](CF)[C@@H]5C4)n3)cs2)c1` [Compound 689], the IC50 in test [1] and in test [2] was more than 100 nM throughout.
Regarding `CC(C)(C)n1ccc(C(=O)NCC(=O)Nc2nc(-c3cccc(N4CC[C@H](F)C4)n3)cs2)c1` [Compound 690], the IC50 in test [1] was more than 10 nM; in test [2], more than 100 nM.
For `COC[C@H](NC(=O)c1ccn(S(C)(=O)=O)c1)C(=O)Nc1nc(-c2cccc(N3CC[C@@H](C(F)F)C3)n2)cs1` [Compound 691] the same measures were more than 10 nM and more than 100 nM.
The corresponding values for `CC(C)(C)n1ccc(C(=O)NCC(=O)Nc2nc(-c3cccc(N4CCn5ncnc5C4)n3)cs2)c1` [Compound 692] are more than 10 nM and more than 10 nM.
The corresponding values for `C[C@@H]1CN(c2cncc(-c3csc(NC(=O)CNC(=O)c4ccn(S(C)(=O)=O)c4)n3)n2)C[C@H](C)O1` [Compound 693] are less than 10 nM and more than 10 nM.
Take `COC[C@H](NC(=O)c1ccn(S(C)(=O)=O)c1)C(=O)Nc1nc(-c2cc(F)c3c(c2)OCO3)cs1` [Compound 695]: the IC50 in test [1] and in test [2] was less than 10 nM in each case.
Consider `Cn1ccc(C2CCN(c3cccc(-c4csc(NC(=O)CNC(=O)c5ccn(C(C)(C)C)c5)n4)n3)CC2)n1` [Compound 696], for which the IC50 in test [1] and in test [2] was more than 100 nM each time.
For `CC(C)(C)n1ccc(C(=O)NCC(=O)Nc2nc(-c3cccc(N4CCCC(OC(F)F)C4)n3)cs2)c1` (stereo not shown) [Compound 697], the IC50 in test [1] and in test [2] was more than 10 nM each time.
Take `CS(=O)(=O)n1ccc(C(=O)NCC(=O)Nc2nc(-c3cccc(N4CC[C@H](C(F)F)C4)n3)cs2)c1` [Compound 698]: the IC50 in test [1] and in test [2] was more than 10 nM throughout.
`COC[C@H](NC(=O)c1ccn(S(C)(=O)=O)c1)C(=O)Nc1nc(-c2cccc(N3CC[C@H](C(F)F)C3)n2)cs1` [Compound 699]: the IC50 in test [1] and in test [2] was more than 10 nM throughout.
On to `COc1cc(F)cc(-c2csc(NC(=O)CNC(=O)c3ccn(S(C)(=O)=O)c3)n2)c1` [Compound 701], for which the IC50 in test [1] was less than 10 nM; in test [2], more than 10 nM.
With `Cc1nc(C2CCCN(c3cccc(-c4csc(NC(=O)CNC(=O)c5ccn(C(C)(C)C)c5)n4)n3)C2)no1` (stereo not shown) [Compound 704], the IC50 in test [1] and in test [2] was more than 10 nM each time.
As to `C[C@@H]1CN(c2cncc(-c3csc(NC(=O)CNC(=O)c4ccn(C(C)(C)C)c4)n3)n2)C[C@H](C)O1` [Compound 705], the IC50 in test [1] and in test [2] was more than 10 nM each time.
For the molecule `Cn1cc(N2CCN(c3cccc(-c4csc(NC(=O)CNC(=O)c5ccn(C(C)(C)C)c5)n4)n3)CC2)cn1` [Compound 706], the IC50 in test [1] and in test [2] was more than 100 nM each time.
`COC[C@H](NC(=O)c1ccn(S(C)(=O)=O)c1)C(=O)Nc1nc(-c2cncc(N3C[C@@H](C)O[C@@H](C)C3)n2)cs1` [Compound 707]: the IC50 in test [1] and in test [2] was more than 10 nM each time.
`COC[C@H](NC(=O)c1ccn(S(C)(=O)=O)c1)C(=O)Nc1nc(-c2cc(F)c3c(c2)CCO3)cs1` [Compound 708]: the IC50 in test [1] and in test [2] was less than 10 nM in each case.
Take `CC(C)(C)n1ccc(C(=O)NCC(=O)Nc2nc(-c3cccc(N4CCCC(n5cncn5)C4)n3)cs2)c1` (stereo not shown) [Compound 709]: the IC50 in test [1] and in test [2] was more than 10 nM throughout.
In the case of `COC[C@H](NC(=O)c1ccn(S(C)(=O)=O)c1)C(=O)Nc1nc(-c2cccc(OC)c2F)cs1` [Compound 710], the IC50 in test [1] and in test [2] was more than 10 nM in each case.
In the case of `COc1cccc(-c2csc(NC(=O)CNC(=O)c3ccn(S(C)(=O)=O)c3)n2)c1F` [Compound 711], the IC50 in test [1] and in test [2] was more than 10 nM throughout.
As for `COC[C@H](NC(=O)c1ccn(S(C)(=O)=O)c1)C(=O)Nc1nc(-c2cccc(C#N)c2)cs1` [Compound 712], the IC50 in test [1] and in test [2] was more than 10 nM throughout.
Turning to `COC[C@H](NC(=O)c1ccn(S(C)(=O)=O)c1)C(=O)Nc1nc(-c2cc(F)c3c(c2)N(C)CC3)cs1` [Compound 713], the IC50 in test [1] and in test [2] was less than 10 nM in each case.
Consider `COC[C@H](NC(=O)c1ccn(S(C)(=O)=O)c1)C(=O)Nc1nc(-c2cc(F)cc(C#N)c2)cs1` [Compound 714], for which the IC50 in test [1] and in test [2] was more than 10 nM in each case.
As to `CS(=O)(=O)n1ccc(C(=O)NCC(=O)Nc2nc(-c3cc(F)cc(C#N)c3)cs2)c1` [Compound 715], the IC50 in test [1] and in test [2] was more than 10 nM throughout.
`COC[C@H](NC(=O)c1ccn(S(C)(=O)=O)c1)C(=O)Nc1nc(-c2ccc(F)c(OC)c2)cs1` [Compound 716]: the IC50 in test [1] and in test [2] was more than 10 nM each time.
For `CS(=O)(=O)n1ccc(C(=O)NCC(=O)Nc2nc(-c3cccc([C@H]4[C@@H]5COC[C@@H]54)c3)cs2)c1` [Compound 717], the IC50 in test [1] and in test [2] was more than 10 nM each time.
On to `COc1cc(-c2csc(NC(=O)CNC(=O)c3ccn(S(C)(=O)=O)c3)n2)ccc1F` [Compound 718], for which the IC50 in test [1] and in test [2] was more than 10 nM each time.
In the case of `CS(=O)(=O)n1ccc(C(=O)NCC(=O)Nc2nc(-c3cc(F)c4c(c3)C(F)(F)CC4)cs2)c1` [Compound 719], the IC50 in test [1] and in test [2] was less than 10 nM in each case.
For `CS(=O)(=O)n1ccc(C(=O)NCC(=O)Nc2nc(-c3ccc4c(c3)C(F)(F)CC4)cs2)c1` [Compound 720], the IC50 in test [1] and in test [2] was more than 10 nM in each case.
For `COC[C@H](NC(=O)c1ccn(S(C)(=O)=O)c1)C(=O)Nc1nc(-c2cc(Cl)cc(C#N)c2)cs1` [Compound 721], the IC50 in test [1] and in test [2] was more than 10 nM throughout.
Regarding `CS(=O)(=O)n1ccc(C(=O)NCC(=O)Nc2nc(-c3cc(Cl)cc(C#N)c3)cs2)c1` [Compound 722], the IC50 in test [1] and in test [2] was more than 10 nM in each case.
For the molecule `COC[C@H](NC(=O)c1ccn(S(C)(=O)=O)c1)C(=O)Nc1nc(-c2cc(F)cc(OC)c2)cs1` [Compound 726], the IC50 in test [1] and in test [2] was less than 10 nM in each case.
Take `CC(C)(C)n1ccc(C(=O)NCC(=O)Nc2nc(-c3cccc(N4CC[C@@H]5COC[C@H]5C4)n3)cs2)c1` [Compound 727]: the IC50 was less than 10 nM in test [1] and more than 10 nM in test [2].
For `COC[C@H](NC(=O)c1ccn(S(C)(=O)=O)c1)C(=O)Nc1nc(-c2ccc3c(c2)OC(F)(F)O3)cs1` [Compound 728] the same measures were more than 10 nM and more than 10 nM.

For the origin of these results see US20230079819A1, “COMPOUNDS AND USES THEREOF” (Foghorn Therapeutics Inc., priority 2019, published 2023).
